Laboratory results: publication PMC7033278, “A Nonpeptide Oxytocin Receptor Agonist for a Durable Relief of Inflammatory Pain” (Scientific Reports, 2020)
Read-outs that look alike come from different tables or passages of the source.

How the values were obtained:
V1bR (hV1BR) = system: V1bR (hV1BR); parameters: method as in PMID 30199637; details: cited from earlier work
hOTR = system: hOTR; parameters: method as in PMID 30199637; details: human receptor, cited from earlier work
[1] = system: V2 vasopressin receptor (V2R); parameters: method as in PMID 30199637; details: cited from earlier work
[2] = stability in PBS solution over 24 h; type: physicochemical; details: PBS pH 7.4, room temperature, after 24 h
[3] = lipophilicity LogD7.4 (octanol/PBS); type: physicochemical; details: experimental, octanol/PBS pH 7.4
Experimental: Solubility of LIT-001 was determined from solution of about 1 mg of compound in 500 μl of PBS at pH 7.4. (Figs. 1, S1) The solution was stirred at room temperature for 24 h and centrifuged at 15.000 × g for 5 min. The supernatant was diluted with a mixture of acetonitrile and water and analyzed by HPLC with a diode detector (Gilson; Kinetex 2.6 μm C18 100 A 50 × 4.6 mm column). […] The lipophilicity (LogD7.4) of LIT-001 was measured using […] of a stock solution diluted with different concentrations of octanol and PBS to cover a LogP range from −2 to + 4.5 in a final volume of 1 ml. After stirring for 1 h at room temperature (≈ 20 °C), the samples were centrifuged and the different phases were analyzed by HPLC (Gilson; diode detector, Kinetex 2.6 μ C18 100 A 50 × 4.6 mm column).

[4] = system: V2 vasopressin receptor (V2R); parameters: method as in PMID 30199637; details: cited from earlier work; remark: listed apart in the source
[5] = distribution and clearance after i.p. injection, LC-MS/MS; type: in vivo; details: ip, rat, 10 mg/kg i.p.
Experimental: Brains from rat injected with 10 mg/kg (18.8 µmol/kg) i.p. of LIT-001 were homogenized with an Ultra Turrax instrument (Ika, Staufen, Germany) in 2 ml of H2O (Figs. 4, S4). The homogenates were then sonicated (3 times 10 s, 100 W) with a Vibra Cell apparatus (Sonics, Newtown, U.S.A.). Protein concentrations were determined using the Bradford method (Protein Assay, Bio-Rad, Marne-la-Coquette, France). 400 µl was mixed with 4 ml of ice cold acetonitrile (ACN) and let 30 min on ice. Samples were then centrifuged (20,000 × g, 30 min) at 4 °C. Supernatants were dried under vacuum and resuspended in 400 µl ACN 10%/H2O 89.9%/formic acid 0.1% (v/v/v) and a volume of 5 µl was injected on the LC-MS/MS. For CSF, plasma and urine, 200 µl of fluids were mixed with 1 ml of ice cold acetonitrile (ACN) and let 30 min on ice. Samples were then centrifuged (20,000 × g, 30 min) at 4 °C. Supernatants were dried under vacuum and suspended in 200 µl ACN 10%/H2O 89.9%/formic acid 0.1% (v/v/v) and a volume of 5 µl was injected on the LC-MS/MS.
Analyses were performed on a Dionex Ultimate 3000 HPLC system (Thermo Scientific, San Jose, USA) coupled with a triple quadrupole Endura mass spectrometer (Thermo Scientific). The system was controlled by Xcalibur v.2.0 software (Thermo Electron). Samples were loaded onto an Accucore C18 RP-MS column (ref 17126–151030; 150 × 1 mm 2.6 μm, Thermo Scientific) heated at 40 °C. The presence of LIT-001 was studied using the multiple reaction monitoring mode (MRM). Elution was performed at a flow rate of 150 µl/min by applying a linear gradient of mobile phases A/B. Mobile phase A corresponded to ACN 1%/H2O 98.9%/formic acid 0.1% (v/v/v), whereas mobile phase B was ACN 99.9%/formic acid 0.1% (v/v). The gradient used is detailed in Fig. S4. […] Desolvation (nitrogen) sheath gas was set to 27 Arb and Aux gas was set to 9 Arb. The ion transfer tube was heated at 312 °C. Q1 and Q2 resolutions were set at 0.7 FWHM, whereas collision gas (CID, argon) was set to 2 mTorr. Identification of the compounds was based on precursor ion, selective fragment ions and retention times obtained for LIT-001. Selection of the monitored transitions and optimization of collision energy and RF Lens parameters were manually determined (see Fig. S4 for details). Qualification and quantification were performed in MRM mode. Quantification was obtained using Quan Browser software (Thermo Scientific). For tissues and fluids, LIT-001 was quantified using calibration curves of external standards of LIT-001 (125 fmol to 100 pmol/injection; Fig. S4) added to urine, plasma or brain extracts of naive rat and submitted to the same procedure described for respective fluids and tissue recovery. The amounts of LIT-001 measured in samples fit within the standard curve limits, with typical analytical ranges (the range of amounts that can be accurately quantified) from […].

[6] = stability in human hepatocytes; type: in vitro ADME
Experimental: Stability of LIT-001 was determined in human hepatocytes. Cells were unfrozen and their viability measured (Tryptan blue). Cells are suspended (2 × 10^6 cells/ml) and dispensed in 96 well microtiterplates (50 μl/well). LIT-001 (50 μl of a 2 μM in the incubation media) was added. The final concentration of the compound was 1 μM in 1 × 10^6 cells/ml. The incubation volume was 100 μl/well. Incubations were stopped after 0, 4, 20, 40, 80 and 120 min in mixing the well content with 100 μl acetonitrile at 0 °C. A positive control (testosterone) was prepared in same conditions. All samples were analyzed by LC-MS/MS (UHPLC coupled to a triple quadripole Shimadzu LC-MS 8030). Each measurement was performed in triplicate.

[7] = CSF, read-out: concentration in CSF
[8] = brain, read-out: concentration in brain
[9] = plasma, read-out: concentration in plasma
[10] = urine, read-out: concentration in urine

Cc1cc(C(=O)N2Cc3cnn(C)c3Nc3ccccc32)ccc1CNC(=O)N1CCC[C@H]1C(=S)N(C)C [LIT-001]
EC50 (hV1BR) (V1bR (hV1BR); agonist mode): non significant
agonist or antagonist effect on V1bR (V1bR (hV1BR)): devoid of agonist or antagonist effect
EC50 (hOTR; agonist): 25 nM
Emax (hOTR) (hOTR; efficacy): 96%
affinity for V2R [1]: low micromolar affinity
degradation in PBS solution [2]: No degradation
logD [3]: 2 ± 0.3
V2R agonism in functional assays [4]: potent V2R agonist
concentration at 60 min [5, 7]: 7.4 ± 4.4 nM
concentration at 300 min [5, 7]: 1.5 ± 1.1 nM
concentration at 60 min [5, 8]: 1.6 ± 0.8 nM
concentration at 300 min [5, 8]: 0.6 ± 0.4 nM
concentration at 30 min ([5]; plasma, 30 min (highest)): 650 ± 200 nM
concentration at 60 min [5, 9]: 626 ± 112 nM
concentration at 300 min [5, 9]: 95.2 ± 36.5 nM
concentration at 60 min [5, 10]: 52500 ± 14200 nM
concentration at 300 min [5, 10]: 189000 ± 8480 nM
degradation on human hepatocytes ([6]; 1 μM, 37 °C, after 2 hours): no degradation was observed
half-life at 1 μM ([6]; human, human hepatocytes (cryopreserved, suspension), from in vitro stability results): > 2 h
